# According to paper PMC11167047 (Cell Death Discovery, 2024):
# Tests used:
# Test in all cases: kinome screen (33PanQinase)
# Type in all cases: biochemical
# [1] = target: T1, GRK3 (Homo sapiens, UniProt P35626)
# T1 construct: purchased Reaction Biology Europe GmbH (formerly ProQinase)
# T1 sequence (P35626 1-688): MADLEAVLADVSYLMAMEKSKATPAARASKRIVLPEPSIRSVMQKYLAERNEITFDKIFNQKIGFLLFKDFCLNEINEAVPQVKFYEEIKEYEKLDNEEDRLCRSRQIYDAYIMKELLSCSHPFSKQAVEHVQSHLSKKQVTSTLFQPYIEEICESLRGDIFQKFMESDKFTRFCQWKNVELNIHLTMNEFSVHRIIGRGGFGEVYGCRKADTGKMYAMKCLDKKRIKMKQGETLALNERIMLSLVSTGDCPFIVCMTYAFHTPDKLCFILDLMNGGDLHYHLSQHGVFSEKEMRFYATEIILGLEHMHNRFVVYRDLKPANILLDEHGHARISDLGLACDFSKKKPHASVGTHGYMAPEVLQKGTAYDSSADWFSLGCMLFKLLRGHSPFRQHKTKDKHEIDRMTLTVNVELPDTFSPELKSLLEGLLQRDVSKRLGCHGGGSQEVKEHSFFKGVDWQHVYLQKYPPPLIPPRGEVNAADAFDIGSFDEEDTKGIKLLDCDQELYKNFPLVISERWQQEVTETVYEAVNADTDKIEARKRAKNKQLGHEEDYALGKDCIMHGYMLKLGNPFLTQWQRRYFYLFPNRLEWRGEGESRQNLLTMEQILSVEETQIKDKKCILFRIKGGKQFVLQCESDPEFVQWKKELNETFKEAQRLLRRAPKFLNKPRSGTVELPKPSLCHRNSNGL
# Description: (§1) The Kinome Screening was performed by Reaction Biology Europe GmbH (http://reactionbiology.com; Freiburg i. Br., Germany).
# [2] = target: T2, PAK3 (Homo sapiens, UniProt O75914)
# T2 construct: purchased Reaction Biology Europe GmbH (formerly ProQinase)
# T2 sequence (O75914 whole entry): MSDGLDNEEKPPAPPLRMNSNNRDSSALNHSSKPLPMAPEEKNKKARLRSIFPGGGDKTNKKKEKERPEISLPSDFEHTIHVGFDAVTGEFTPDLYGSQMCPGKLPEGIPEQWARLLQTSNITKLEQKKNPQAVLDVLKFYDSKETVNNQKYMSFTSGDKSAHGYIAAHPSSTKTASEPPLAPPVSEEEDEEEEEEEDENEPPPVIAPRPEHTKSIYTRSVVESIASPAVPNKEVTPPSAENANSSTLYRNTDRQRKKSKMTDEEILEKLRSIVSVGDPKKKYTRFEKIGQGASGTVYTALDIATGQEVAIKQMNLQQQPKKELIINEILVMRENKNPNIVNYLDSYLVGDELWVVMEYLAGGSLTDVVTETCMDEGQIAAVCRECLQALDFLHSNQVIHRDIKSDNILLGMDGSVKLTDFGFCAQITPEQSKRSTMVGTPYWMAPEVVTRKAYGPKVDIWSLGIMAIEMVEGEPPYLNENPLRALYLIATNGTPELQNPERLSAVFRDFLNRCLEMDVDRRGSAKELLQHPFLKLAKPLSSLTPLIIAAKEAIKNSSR
# Description: as §1
# [3] = target: T3, CDK3/CycE1 (Homo sapiens, UniProt Q00526)
# T3 construct: purchased Reaction Biology Europe GmbH (formerly ProQinase)
# T3 sequence (Q00526 whole entry): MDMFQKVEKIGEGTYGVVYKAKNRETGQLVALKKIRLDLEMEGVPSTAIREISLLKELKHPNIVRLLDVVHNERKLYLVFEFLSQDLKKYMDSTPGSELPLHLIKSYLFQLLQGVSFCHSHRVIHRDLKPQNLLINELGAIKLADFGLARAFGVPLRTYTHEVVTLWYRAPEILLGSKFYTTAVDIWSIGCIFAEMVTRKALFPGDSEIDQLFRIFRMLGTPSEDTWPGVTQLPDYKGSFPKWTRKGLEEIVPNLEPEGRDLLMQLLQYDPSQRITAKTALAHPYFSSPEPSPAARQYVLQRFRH
# T3 sequence (P24864 whole entry partner): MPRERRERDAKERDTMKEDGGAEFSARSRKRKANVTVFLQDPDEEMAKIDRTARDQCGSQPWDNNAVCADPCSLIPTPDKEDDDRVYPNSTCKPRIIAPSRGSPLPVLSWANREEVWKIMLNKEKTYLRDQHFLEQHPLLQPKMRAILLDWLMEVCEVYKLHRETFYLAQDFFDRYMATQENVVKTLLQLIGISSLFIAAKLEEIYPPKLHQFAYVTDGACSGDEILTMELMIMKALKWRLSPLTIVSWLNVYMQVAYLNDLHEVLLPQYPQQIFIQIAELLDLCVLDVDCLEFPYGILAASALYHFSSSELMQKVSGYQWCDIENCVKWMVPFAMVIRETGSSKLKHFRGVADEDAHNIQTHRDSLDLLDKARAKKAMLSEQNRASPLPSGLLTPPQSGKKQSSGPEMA
# Description: as §1
# [4] = target: T4, ROCK1 (Homo sapiens, UniProt Q13464)
# T4 construct: purchased Reaction Biology Europe GmbH (formerly ProQinase)
# Description: as §1
# [5] = target: T5, INSRR (Homo sapiens, UniProt P14616)
# T5 construct: purchased Reaction Biology Europe GmbH (formerly ProQinase)
# T5 sequence (P14616 27-1297): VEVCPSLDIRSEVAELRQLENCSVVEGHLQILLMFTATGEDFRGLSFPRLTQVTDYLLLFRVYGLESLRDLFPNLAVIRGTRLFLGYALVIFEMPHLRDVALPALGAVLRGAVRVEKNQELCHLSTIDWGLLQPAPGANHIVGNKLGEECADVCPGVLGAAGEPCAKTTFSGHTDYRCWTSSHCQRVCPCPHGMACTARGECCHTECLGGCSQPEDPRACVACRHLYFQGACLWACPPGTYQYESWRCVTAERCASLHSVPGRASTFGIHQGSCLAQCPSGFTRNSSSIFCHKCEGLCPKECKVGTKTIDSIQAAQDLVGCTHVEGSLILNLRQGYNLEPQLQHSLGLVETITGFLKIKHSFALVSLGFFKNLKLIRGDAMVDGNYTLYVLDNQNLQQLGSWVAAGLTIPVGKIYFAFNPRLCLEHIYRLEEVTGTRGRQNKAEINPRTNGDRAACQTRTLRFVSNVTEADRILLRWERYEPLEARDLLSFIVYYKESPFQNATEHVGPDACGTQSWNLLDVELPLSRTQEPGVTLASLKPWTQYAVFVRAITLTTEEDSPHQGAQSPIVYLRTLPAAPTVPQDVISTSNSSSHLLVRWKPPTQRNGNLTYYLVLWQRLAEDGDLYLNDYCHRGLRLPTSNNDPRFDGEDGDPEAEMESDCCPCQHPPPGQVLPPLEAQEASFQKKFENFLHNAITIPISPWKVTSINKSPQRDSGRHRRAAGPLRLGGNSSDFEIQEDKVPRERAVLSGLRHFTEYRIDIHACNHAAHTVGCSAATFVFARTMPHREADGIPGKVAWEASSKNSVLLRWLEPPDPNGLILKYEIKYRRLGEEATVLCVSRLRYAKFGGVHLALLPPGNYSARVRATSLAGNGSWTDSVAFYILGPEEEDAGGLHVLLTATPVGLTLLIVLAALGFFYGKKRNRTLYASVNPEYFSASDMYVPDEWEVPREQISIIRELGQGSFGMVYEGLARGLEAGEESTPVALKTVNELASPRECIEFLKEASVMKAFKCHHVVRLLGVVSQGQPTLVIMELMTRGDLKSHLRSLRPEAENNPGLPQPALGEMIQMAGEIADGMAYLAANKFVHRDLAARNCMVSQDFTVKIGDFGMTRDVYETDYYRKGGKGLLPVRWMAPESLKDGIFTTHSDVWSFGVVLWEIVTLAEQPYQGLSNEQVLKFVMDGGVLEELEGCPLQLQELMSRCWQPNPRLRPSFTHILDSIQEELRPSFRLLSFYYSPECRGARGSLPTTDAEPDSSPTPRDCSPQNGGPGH
# Description: as §1
# [6] = target: T6, SIK2 (Homo sapiens, UniProt Q9H0K1)
# T6 construct: purchased Reaction Biology Europe GmbH (formerly ProQinase)
# Description: as §1
# [7] = target: T7, IGF1R (Homo sapiens, UniProt P08069)
# T7 construct: purchased Reaction Biology Europe GmbH (formerly ProQinase)
# T7 sequence (P08069 31-1367): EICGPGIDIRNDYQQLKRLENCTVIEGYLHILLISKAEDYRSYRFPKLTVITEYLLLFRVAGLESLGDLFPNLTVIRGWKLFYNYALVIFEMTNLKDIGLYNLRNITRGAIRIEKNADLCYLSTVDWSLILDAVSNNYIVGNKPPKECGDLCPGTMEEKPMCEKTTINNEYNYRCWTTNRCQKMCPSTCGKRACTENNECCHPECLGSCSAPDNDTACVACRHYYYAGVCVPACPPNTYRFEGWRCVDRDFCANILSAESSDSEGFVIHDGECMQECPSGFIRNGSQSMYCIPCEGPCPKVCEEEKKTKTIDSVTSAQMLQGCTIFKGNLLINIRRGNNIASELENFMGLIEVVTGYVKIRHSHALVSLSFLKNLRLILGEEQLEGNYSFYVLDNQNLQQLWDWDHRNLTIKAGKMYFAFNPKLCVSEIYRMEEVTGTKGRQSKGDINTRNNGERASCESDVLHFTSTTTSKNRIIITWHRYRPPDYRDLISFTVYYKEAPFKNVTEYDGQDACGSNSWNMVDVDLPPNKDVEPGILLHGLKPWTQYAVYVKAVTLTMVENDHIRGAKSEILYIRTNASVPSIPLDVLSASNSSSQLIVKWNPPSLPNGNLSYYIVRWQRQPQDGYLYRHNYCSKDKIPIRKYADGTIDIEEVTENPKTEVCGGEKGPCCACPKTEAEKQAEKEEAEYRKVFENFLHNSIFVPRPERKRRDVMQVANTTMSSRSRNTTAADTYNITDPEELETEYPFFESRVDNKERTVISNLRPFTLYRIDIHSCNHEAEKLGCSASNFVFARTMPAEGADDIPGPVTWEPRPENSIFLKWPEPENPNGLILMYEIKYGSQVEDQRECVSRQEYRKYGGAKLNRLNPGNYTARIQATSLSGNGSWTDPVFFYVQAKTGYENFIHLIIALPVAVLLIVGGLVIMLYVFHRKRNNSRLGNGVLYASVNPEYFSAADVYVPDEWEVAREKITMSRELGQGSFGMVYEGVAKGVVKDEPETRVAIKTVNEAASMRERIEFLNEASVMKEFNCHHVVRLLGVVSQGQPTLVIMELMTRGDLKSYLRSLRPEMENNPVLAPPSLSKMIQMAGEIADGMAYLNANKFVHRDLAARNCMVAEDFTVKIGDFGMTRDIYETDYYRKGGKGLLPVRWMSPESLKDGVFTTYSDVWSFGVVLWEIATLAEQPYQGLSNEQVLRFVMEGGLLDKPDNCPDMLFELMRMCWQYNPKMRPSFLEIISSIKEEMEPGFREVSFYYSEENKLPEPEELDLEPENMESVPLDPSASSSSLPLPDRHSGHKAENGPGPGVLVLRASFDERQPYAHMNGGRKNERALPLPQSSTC
# Description: as §1
# [8] = target: T8, MAP3K10 (Homo sapiens, UniProt Q02779)
# T8 construct: purchased Reaction Biology Europe GmbH (formerly ProQinase)
# Description: as §1
# [9] = target: T9, CDK6/CycD2 (Homo sapiens, UniProt Q00534)
# T9 construct: purchased Reaction Biology Europe GmbH (formerly ProQinase)
# T9 sequence (Q00534 whole entry): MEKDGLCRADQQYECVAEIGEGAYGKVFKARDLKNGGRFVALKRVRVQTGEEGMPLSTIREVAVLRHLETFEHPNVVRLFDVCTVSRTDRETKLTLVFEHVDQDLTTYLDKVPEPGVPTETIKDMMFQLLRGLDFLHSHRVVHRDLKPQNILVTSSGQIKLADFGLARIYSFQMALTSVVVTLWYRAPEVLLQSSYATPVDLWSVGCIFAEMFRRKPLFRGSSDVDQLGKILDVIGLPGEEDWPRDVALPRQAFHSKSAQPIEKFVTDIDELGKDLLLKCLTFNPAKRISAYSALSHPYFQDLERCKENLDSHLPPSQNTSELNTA
# T9 sequence (P30279 whole entry partner): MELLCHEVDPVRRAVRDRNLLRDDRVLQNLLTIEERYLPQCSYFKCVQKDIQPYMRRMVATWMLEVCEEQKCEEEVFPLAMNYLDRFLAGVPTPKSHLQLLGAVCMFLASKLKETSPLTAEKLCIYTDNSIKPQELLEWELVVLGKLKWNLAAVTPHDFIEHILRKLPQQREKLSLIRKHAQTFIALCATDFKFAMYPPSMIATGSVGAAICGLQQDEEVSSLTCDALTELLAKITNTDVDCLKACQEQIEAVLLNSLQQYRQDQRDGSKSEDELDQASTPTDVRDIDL
# Description: as §1
# [10] = target: T10, SGK2 (Homo sapiens, UniProt Q9HBY8)
# T10 construct: purchased Reaction Biology Europe GmbH (formerly ProQinase)
# T10 sequence (Q9HBY8 1-367): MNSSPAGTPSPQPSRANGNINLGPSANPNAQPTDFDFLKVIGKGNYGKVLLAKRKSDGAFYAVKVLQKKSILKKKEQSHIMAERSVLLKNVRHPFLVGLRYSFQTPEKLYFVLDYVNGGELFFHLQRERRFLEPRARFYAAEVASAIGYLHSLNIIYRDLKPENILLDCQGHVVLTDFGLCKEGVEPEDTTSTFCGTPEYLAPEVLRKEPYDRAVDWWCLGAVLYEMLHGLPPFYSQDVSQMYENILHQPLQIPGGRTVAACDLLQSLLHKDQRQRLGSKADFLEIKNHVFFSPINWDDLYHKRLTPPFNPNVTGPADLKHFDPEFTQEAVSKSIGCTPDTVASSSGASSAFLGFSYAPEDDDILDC
# Description: as §1
# [11] = target: T11, IRAK4 (Homo sapiens, UniProt Q9NWZ3)
# T11 construct: purchased Reaction Biology Europe GmbH (formerly ProQinase)
# T11 sequence (Q9NWZ3 1-460): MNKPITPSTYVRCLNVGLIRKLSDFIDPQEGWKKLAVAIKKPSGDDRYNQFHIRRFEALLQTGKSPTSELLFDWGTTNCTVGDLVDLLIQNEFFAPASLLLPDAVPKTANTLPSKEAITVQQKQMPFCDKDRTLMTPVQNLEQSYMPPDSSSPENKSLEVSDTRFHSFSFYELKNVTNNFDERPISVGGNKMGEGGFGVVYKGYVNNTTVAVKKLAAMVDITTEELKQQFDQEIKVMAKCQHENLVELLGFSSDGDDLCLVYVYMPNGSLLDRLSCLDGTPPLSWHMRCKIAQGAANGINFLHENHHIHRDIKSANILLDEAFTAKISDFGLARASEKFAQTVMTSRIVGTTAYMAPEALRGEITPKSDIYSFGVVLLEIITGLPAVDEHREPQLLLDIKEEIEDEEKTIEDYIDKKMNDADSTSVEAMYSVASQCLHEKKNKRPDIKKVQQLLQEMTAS
# Description: as §1
# [12] = target: T12, MKNK1 (Homo sapiens, UniProt Q9BUB5)
# T12 construct: purchased Reaction Biology Europe GmbH (formerly ProQinase)
# T12 sequence (Q9BUB5 whole entry): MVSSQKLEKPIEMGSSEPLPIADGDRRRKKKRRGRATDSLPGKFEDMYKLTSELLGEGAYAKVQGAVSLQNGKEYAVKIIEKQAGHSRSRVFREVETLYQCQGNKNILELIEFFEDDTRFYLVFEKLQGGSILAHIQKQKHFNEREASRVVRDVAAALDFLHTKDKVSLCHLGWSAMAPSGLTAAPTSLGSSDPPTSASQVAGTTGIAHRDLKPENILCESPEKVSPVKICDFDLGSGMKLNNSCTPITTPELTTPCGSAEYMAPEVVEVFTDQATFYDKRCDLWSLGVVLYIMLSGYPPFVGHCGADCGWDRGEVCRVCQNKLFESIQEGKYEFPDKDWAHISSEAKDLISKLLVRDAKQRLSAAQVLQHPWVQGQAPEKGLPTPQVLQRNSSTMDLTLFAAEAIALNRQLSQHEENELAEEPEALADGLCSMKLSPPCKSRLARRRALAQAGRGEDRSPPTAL
# Description: as §1
# [13] = target: T13, TSSK1 (Homo sapiens, UniProt Q9BXA7)
# T13 construct: purchased Reaction Biology Europe GmbH (formerly ProQinase)
# T13 sequence (Q9BXA7 1-367): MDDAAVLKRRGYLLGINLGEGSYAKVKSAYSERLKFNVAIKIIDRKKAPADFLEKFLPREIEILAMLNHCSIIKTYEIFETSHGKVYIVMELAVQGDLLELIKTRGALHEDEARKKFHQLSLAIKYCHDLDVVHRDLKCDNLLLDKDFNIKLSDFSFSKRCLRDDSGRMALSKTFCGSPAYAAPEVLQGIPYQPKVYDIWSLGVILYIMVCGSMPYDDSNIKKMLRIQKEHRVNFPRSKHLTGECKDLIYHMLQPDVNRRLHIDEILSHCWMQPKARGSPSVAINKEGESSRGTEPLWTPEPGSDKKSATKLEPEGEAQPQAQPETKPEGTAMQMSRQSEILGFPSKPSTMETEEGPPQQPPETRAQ
# Description: as §1
Compound,residual kinase activity ([1]; 0.3 µM),residual kinase activity ([2]; 0.3 µM),residual kinase activity ([3]; 0.3 µM),residual kinase activity ([4]; 0.3 µM),residual kinase activity ([5]; 0.3 µM),residual kinase activity ([6]; 0.3 µM),residual kinase activity ([7]; 0.3 µM),residual kinase activity ([8]; 0.3 µM),residual kinase activity ([9]; 0.3 µM),residual kinase activity ([10]; 0.3 µM),residual kinase activity ([11]; 0.3 µM),residual kinase activity ([12]; 0.3 µM),residual kinase activity ([13]; 0.3 µM),also measured
COc1ccnc2[nH]cc(-c3cc(N)nc(N)c3)c12 [meriolin 16],107 % of control,84 % of control,5 % of control,2 % of control,96 % of control,102 % of control,99 % of control,76 % of control,76 % of control,74 % of control,50 % of control,70 % of control,83 % of control,residual kinase activity ([1]; 0.03 µM): 111 % of control; residual kinase activity ([2]; 0.03 µM): 85 % of control; residual kinase activity ([3]; 0.03 µM): 36 % of control; residual kinase activity ([4]; 0.03 µM): 24 % of control; residual kinase activity ([5]; 0.03 µM): 97 % of control; residual kinase activity ([6]; 0.03 µM): 96 % of control; residual kinase activity ([7]; 0.03 µM): 116 % of control; residual kinase activity ([8]; 0.03 µM): 99 % of control; residual kinase activity ([9]; 0.03 µM): 93 % of control; residual kinase activity ([10]; 0.03 µM): 97 % of control; residual kinase activity ([11]; 0.03 µM): 83 % of control; residual kinase activity ([12]; 0.03 µM): 97 % of control; residual kinase activity ([13]; 0.03 µM): 109 % of control
c1ccc(CNc2cc(-c3c[nH]c4ncccc34)ccn2)cc1 [meriolin 36],98 % of control,85 % of control,1 % of control,1 % of control,85 % of control,86 % of control,128 % of control,50 % of control,47 % of control,88 % of control,14 % of control,48 % of control,50 % of control,residual kinase activity ([1]; 3 µM): 74 % of control; residual kinase activity ([2]; 3 µM): 40 % of control; residual kinase activity ([3]; 3 µM): -1 % of control; residual kinase activity ([4]; 3 µM): 1 % of control; residual kinase activity ([5]; 3 µM): 39 % of control; residual kinase activity ([6]; 3 µM): 27 % of control; residual kinase activity ([7]; 3 µM): 83 % of control; residual kinase activity ([8]; 3 µM): 9 % of control; residual kinase activity ([9]; 3 µM): 10 % of control; residual kinase activity ([10]; 3 µM): 32 % of control; residual kinase activity ([11]; 3 µM): 2 % of control; residual kinase activity ([12]; 3 µM): 16 % of control; residual kinase activity ([13]; 3 µM): 15 % of control
